How the values were obtained:
barnyard grass [1] = experiment: Test Example 3: herbicidal effect by foliage application, Wagner pot (Table 18, symbol H); type: in vivo, barnyard grass (Echinochloa crus-galli); details: 320 g/ha
Method in brief: (§1)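 Plants were sown in alluvial soil held under 0.1–0.5 cm standing water and grown 14 days in a greenhouse at 25–30 °C. An emulsifiable formulation, water-diluted to the set dose, was then sprayed onto the foliage, and effects were scored three weeks later using previously defined criteria.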

Chinese sprangletop = experiment: Test Example 3: herbicidal effect by foliage application, Wagner pot (Table 18, symbol D); type: in vivo, chinese sprangletop (Leptochloa chinensis); details: 320 g/ha
Method in brief: as §1

rice flat sedge = experiment: Test Example 3: herbicidal effect by foliage application, Wagner pot (Table 18, symbol E); type: in vivo, rice flat sedge (Cyperus iria); details: 320 g/ha
Method in brief: as §1

southern crabgrass [2] = experiment: Test Example 4: herbicidal effect by soil treatment (Table 19, symbol F); type: in vivo, southern crabgrass (Digitaria ciliaris); details: amount of applied herbicide 320 g/ha
Method in brief: (§2)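 Emulsion of test compound, water-diluted to predetermined amount, sprayed on soil after sowing (seed depth ~1.5 cm, sterilized diluvial soil). Greenhouse, 25–30° C. Effect graded at three weeks post-spray.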

green foxtail [3] = experiment: Test Example 4: herbicidal effect by soil treatment (Table 19, symbol G); type: in vivo, green foxtail (Setaria viridis); details: amount of applied herbicide 320 g/ha
Method in brief: as §2

barnyard grass [4] = experiment: Test Example 4: herbicidal effect by soil treatment (Table 19, symbol H); type: in vivo, barnyard grass (Echinochloa crus-galli); details: amount of applied herbicide 320 g/ha
Method in brief: as §2

wild oat [5] = experiment: Test Example 4: herbicidal effect by soil treatment (Table 19, symbol I); type: in vivo, wild oat (Avena fatua); details: amount of applied herbicide 320 g/ha
Method in brief: as §2

blackgrass [6] = experiment: Test Example 4: herbicidal effect by soil treatment (Table 19, symbol J); type: in vivo, blackgrass (Alopecurus myosuroides); details: amount of applied herbicide 320 g/ha
Method in brief: as §2

Italian ryegrass [7] = experiment: Test Example 4: herbicidal effect by soil treatment (Table 19, symbol K); type: in vivo, Italian ryegrass (Lolium multiflorum); details: amount of applied herbicide 320 g/ha
Method in brief: as §2

windgrass [8] = experiment: Test Example 4: herbicidal effect by soil treatment (Table 19, symbol L); type: in vivo, windgrass (Apera spica-venti); details: amount of applied herbicide 320 g/ha
Method in brief: as §2

velvetleaf [9] = experiment: Test Example 4: herbicidal effect by soil treatment (Table 19, symbol M); type: in vivo, velvetleaf (Abutilon theophrasti); details: amount of applied herbicide 320 g/ha
Method in brief: as §2

redroot pigweed [10] = experiment: Test Example 4: herbicidal effect by soil treatment (Table 19, symbol N); type: in vivo, redroot pigweed (Amaranthus retroflexus); details: amount of applied herbicide 320 g/ha
Method in brief: as §2

lambsquarters [11] = experiment: Test Example 4: herbicidal effect by soil treatment (Table 19, symbol O); type: in vivo, lambsquarters (Chenopodium album); details: amount of applied herbicide 320 g/ha
Method in brief: as §2

chickweed [12] = experiment: Test Example 4: herbicidal effect by soil treatment (Table 19, symbol P); type: in vivo, common chickweed (Stellaria media); details: amount of applied herbicide 320 g/ha
Method in brief: as §2

persian speedwell [13] = experiment: Test Example 4: herbicidal effect by soil treatment (Table 19, symbol R); type: in vivo, Persian speedwell (Veronica persica); details: amount of applied herbicide 320 g/ha
Method in brief: as §2

southern crabgrass [14] = experiment: Test Example 5: herbicidal effect by foliage application, plastic box (Table 20, symbol F); type: in vivo, southern crabgrass (Digitaria ciliaris); details: 320 g/ha, foliage application after 14-day growth, evaluated three weeks after application
Method in brief: (§3)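 Post-emergence foliar test in sterilized diluvial soil. Compound applied as water-diluted emulsion at a predetermined rate to 14-day-old plants; evaluation at three weeks.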

green foxtail [15] = experiment: Test Example 5: herbicidal effect by foliage application, plastic box (Table 20, symbol G); type: in vivo, green foxtail (Setaria viridis); details: 320 g/ha, foliage application after 14-day growth, evaluated three weeks after application
Method in brief: as §3

barnyard grass [16] = experiment: Test Example 5: herbicidal effect by foliage application, plastic box (Table 20, symbol H); type: in vivo, barnyard grass (Echinochloa crus-galli); details: 320 g/ha, foliage application after 14-day growth, evaluated three weeks after application
Method in brief: as §3

wild oat [17] = experiment: Test Example 5: herbicidal effect by foliage application, plastic box (Table 20, symbol I); type: in vivo, wild oat (Avena fatua); details: 320 g/ha, foliage application after 14-day growth, evaluated three weeks after application
Method in brief: as §3

blackgrass [18] = experiment: Test Example 5: herbicidal effect by foliage application, plastic box (Table 20, symbol J); type: in vivo, blackgrass (Alopecurus myosuroides); details: 320 g/ha, foliage application after 14-day growth, evaluated three weeks after application
Method in brief: as §3

Italian ryegrass [19] = experiment: Test Example 5: herbicidal effect by foliage application, plastic box (Table 20, symbol K); type: in vivo, Italian ryegrass (Lolium multiflorum); details: 320 g/ha, foliage application after 14-day growth, evaluated three weeks after application
Method in brief: as §3

windgrass [20] = experiment: Test Example 5: herbicidal effect by foliage application, plastic box (Table 20, symbol L); type: in vivo, windgrass (Apera spica-venti); details: 320 g/ha, foliage application after 14-day growth, evaluated three weeks after application
Method in brief: as §3

velvetleaf [21] = experiment: Test Example 5: herbicidal effect by foliage application, plastic box (Table 20, symbol M); type: in vivo, velvetleaf (Abutilon theophrasti); details: 320 g/ha, foliage application after 14-day growth, evaluated three weeks after application
Method in brief: as §3

redroot pigweed [22] = experiment: Test Example 5: herbicidal effect by foliage application, plastic box (Table 20, symbol N); type: in vivo, redroot pigweed (Amaranthus retroflexus); details: 320 g/ha, foliage application after 14-day growth, evaluated three weeks after application
Method in brief: as §3

lambsquarters [23] = experiment: Test Example 5: herbicidal effect by foliage application, plastic box (Table 20, symbol O); type: in vivo, lambsquarters (Chenopodium album); details: 320 g/ha, foliage application after 14-day growth, evaluated three weeks after application
Method in brief: as §3

chickweed [24] = experiment: Test Example 5: herbicidal effect by foliage application, plastic box (Table 20, symbol P); type: in vivo, common chickweed (Stellaria media); details: 320 g/ha, foliage application after 14-day growth, evaluated three weeks after application
Method in brief: as §3

persian speedwell [25] = experiment: Test Example 5: herbicidal effect by foliage application, plastic box (Table 20, symbol R); type: in vivo, Persian speedwell (Veronica persica); details: 320 g/ha, foliage application after 14-day growth, evaluated three weeks after application
Method in brief: as §3

| SMILES | herbicidal effect on barnyard grass (H) (barnyard grass [1]) | herbicidal effect on Chinese sprangletop (D) (Chinese sprangletop) | herbicidal effect on rice flat sedge (E) (rice flat sedge) | Herbicidal effect by soil treatment, F: southern crabgrass (southern crabgrass [2]) | Herbicidal effect by soil treatment, G: green foxtail (green foxtail [3]) | Herbicidal effect by soil treatment, H: barnyard grass (barnyard grass [4]) | Herbicidal effect by soil treatment, I: wild oat (wild oat [5]) | Herbicidal effect by soil treatment, J: blackgrass (blackgrass [6]) | Herbicidal effect by soil treatment, K: Italian ryegrass (Italian ryegrass [7]) | Herbicidal effect by soil treatment, L: windgrass (windgrass [8]) | Herbicidal effect by soil treatment, M: velvetleaf (velvetleaf [9]) | Herbicidal effect by soil treatment, N: redroot pigweed (redroot pigweed [10]) | Herbicidal effect by soil treatment, O: lambsquarters (lambsquarters [11]) | Herbicidal effect by soil treatment, P: chickweed (chickweed [12]) | Herbicidal effect by soil treatment, R: persian speedwell (persian speedwell [13]) | herbicidal effect on F: southern crabgrass (evaluation grade 0-5) (southern crabgrass [14]) | herbicidal effect on G: green foxtail (evaluation grade 0-5) (green foxtail [15]) | herbicidal effect on H: barnyard grass (evaluation grade 0-5) (barnyard grass [16]) | herbicidal effect on I: wild oat (evaluation grade 0-5) (wild oat [17]) | herbicidal effect on J: blackgrass (evaluation grade 0-5) (blackgrass [18]) | also measured |
| --- | --- | --- | --- | --- | --- | --- | --- | --- | --- | --- | --- | --- | --- | --- | --- | --- | --- | --- | --- | --- | --- |
| CCCC(=O)Oc1c(C)nn(C)c(=O)c1-c1c(-c2ccc(F)cc2)sc2c(F)cccc12 [4-002] | 5 (Herbicidal rate of 90% or more (almost completely withered)) | 2 (Herbicidal rate of 20% or more and less than 40%) | 5 (Herbicidal rate of 90% or more (almost completely withered)) | 0 (Herbicidal rate of 5% or less (almost no effect)) | 2 (Herbicidal rate of 20% or more and less than 40%) | 4 (Herbicidal rate of 70% or more and less than 90%) | 0 (Herbicidal rate of 5% or less (almost no effect)) | 0 (Herbicidal rate of 5% or less (almost no effect)) | 0 (Herbicidal rate of 5% or less (almost no effect)) | 0 (Herbicidal rate of 5% or less (almost no effect)) | 2 (Herbicidal rate of 20% or more and less than 40%) | 3 (Herbicidal rate of 40% or more and less than 70%) | 3 (Herbicidal rate of 40% or more and less than 70%) | 0 (Herbicidal rate of 5% or less (almost no effect)) | 0 (Herbicidal rate of 5% or less (almost no effect)) | 0 (Herbicidal rate of 5% or less (almost no effect)) | 4 (Herbicidal rate of 70% or more and less than 90%) | 4 (Herbicidal rate of 70% or more and less than 90%) | 0 (Herbicidal rate of 5% or less (almost no effect)) | 1 (Herbicidal rate of 5% or more and less than 20%) | herbicidal effect on K: Italian ryegrass (evaluation grade 0-5) (Italian ryegrass [19]): 3 (Herbicidal rate of 40% or more and less than 70%); herbicidal effect on L: windgrass (evaluation grade 0-5) (windgrass [20]): 0 (Herbicidal rate of 5% or less (almost no effect)); herbicidal effect on M: velvetleaf (evaluation grade 0-5) (velvetleaf [21]): 5 (Herbicidal rate of 90% or more (almost completely withered)); herbicidal effect on N: redroot pigweed (evaluation grade 0-5) (redroot pigweed [22]): 5 (Herbicidal rate of 90% or more (almost completely withered)); herbicidal effect on O: lambsquarters (evaluation grade 0-5) (lambsquarters [23]): 3 (Herbicidal rate of 40% or more and less than 70%); herbicidal effect on P: chickweed (evaluation grade 0-5) (chickweed [24]): 5 (Herbicidal rate of 90% or more (almost completely withered)); herbicidal effect on R: persian speedwell (evaluation grade 0-5) (persian speedwell [25]): 4 (Herbicidal rate of 70% or more and less than 90%) |
| COc1cc(F)ccc1-c1sc2c(F)cccc2c1-c1c(O)c(C)nn(C)c1=O [4-011] | 4 (Herbicidal rate of 70% or more and less than 90%) | 3 (Herbicidal rate of 40% or more and less than 70%) | 5 (Herbicidal rate of 90% or more (almost completely withered)) | 0 (Herbicidal rate of 5% or less (almost no effect)) | 3 (Herbicidal rate of 40% or more and less than 70%) | 3 (Herbicidal rate of 40% or more and less than 70%) | 0 (Herbicidal rate of 5% or less (almost no effect)) | 0 (Herbicidal rate of 5% or less (almost no effect)) | 0 (Herbicidal rate of 5% or less (almost no effect)) | 0 (Herbicidal rate of 5% or less (almost no effect)) | 0 (Herbicidal rate of 5% or less (almost no effect)) | 2 (Herbicidal rate of 20% or more and less than 40%) | 3 (Herbicidal rate of 40% or more and less than 70%) | 3 (Herbicidal rate of 40% or more and less than 70%) | 0 (Herbicidal rate of 5% or less (almost no effect)) | 2 (Herbicidal rate of 20% or more and less than 40%) | 5 (Herbicidal rate of 90% or more (almost completely withered)) | 3 (Herbicidal rate of 40% or more and less than 70%) | 0 (Herbicidal rate of 5% or less (almost no effect)) | 3 (Herbicidal rate of 40% or more and less than 70%) | herbicidal effect on K: Italian ryegrass (evaluation grade 0-5) (Italian ryegrass [19]): 3 (Herbicidal rate of 40% or more and less than 70%); herbicidal effect on L: windgrass (evaluation grade 0-5) (windgrass [20]): 3 (Herbicidal rate of 40% or more and less than 70%); herbicidal effect on M: velvetleaf (evaluation grade 0-5) (velvetleaf [21]): 3 (Herbicidal rate of 40% or more and less than 70%); herbicidal effect on N: redroot pigweed (evaluation grade 0-5) (redroot pigweed [22]): 3 (Herbicidal rate of 40% or more and less than 70%); herbicidal effect on O: lambsquarters (evaluation grade 0-5) (lambsquarters [23]): 3 (Herbicidal rate of 40% or more and less than 70%); herbicidal effect on P: chickweed (evaluation grade 0-5) (chickweed [24]): 5 (Herbicidal rate of 90% or more (almost completely withered)); herbicidal effect on R: persian speedwell (evaluation grade 0-5) (persian speedwell [25]): 5 (Herbicidal rate of 90% or more (almost completely withered)) |
